Assay: Absorption maxima of dyes (Table 1)
Format: physicochemical
For Acid Fuchsin, the “Absorption maxima of dyes” value was 546 nm.
For Acid Red 37, the “Absorption maxima of dyes” value was 513 nm.
With O=C([O-])C1=NN(c2ccc(S(=O)(=O)[O-])cc2)C(=O)C1N=Nc1ccc(S(=O)(=O)[O-])cc1.[Na+].[Na+].[Na+] (centres unmarked) [Tartrazine] the “Absorption maxima of dyes” value was 425 nm.
For Cc1cc(-c2ccc(/N=N/c3c(S(=O)(=O)O)cc4cc(S(=O)(=O)O)cc(N)c4c3O)c(C)c2)ccc1/N=N/c1c(S(=O)(=O)O)cc2cc(S(=O)(=O)O)cc(N)c2c1O [Trypan Blue], the “Absorption maxima of dyes” value was 607 nm.
With CCN(CC)c1ccc(C(=C2C=CC(=[N+](CC)CC)C=C2)c2cc(O)c(S(=O)(=O)O)cc2S(=O)(=O)O)cc1 [Patent Blue] the “Absorption maxima of dyes” value was 635 nm.
